{"source": "patent US20240197761A1", "about": "“FUCOSYLATION AND IMMUNE MODULATION IN CANCER” (H. LEE MOFFITT CANCER CENTER AND RESEARCH INSTITUTE, INC., priority 2021, published 2024)", "key": {"[1]": {"test_system": "SW1 tumors", "test": "Control vs. L-fucose ± FTY720 model: tumor growth and flow cytometric profiling of tumors and lymph nodes (Table 1)", "assay_type": "in vivo, C3H/HeN mice", "method": "FIGS. 15A-15E Lymph node egress is necessary for L-fucose-triggered tumor suppression; L-fucose increases intratumoral CD4+T stem and central memory cells. (a) Immune subpopulations markers use to profile by flow cytometry. (b) Volumetric growth curves for SW1 tumors in C3H/HeN mice fed without (Ctl) or with L-fucose (LF) and treated with FTY720 (Ctl mice administered FTY720: (FTY); LF-supplemented mice administered FTY720: (L+F)). FTY720 was administered at 20 μg per mouse every 2 days starting on Day 12, just prior to the initiation of LF (c) Pie charts showing ratios of intratumoral or lymph node-resident CD4+ or CD8+T cell subpopulations, as well as DC subtypes from mice at Day 14, 28, and 42 (each pie chart represents 4-5 mice). Assessment of cytotoxic CD4+ T cell populations (CRTAM+) and cytotoxic CD8+ T cell populations (GrzB+) from tumors at Day 28 (d) and Day 42 (e). The tumor growth curves are means±SEM from ≥7 mice per group. *=p<0.05.\nTumors of SW1 or SM1 melanoma cells from […] or C57BL/6 mice, respectively) were digested using 1× tumor digest buffer (0.5 mg/mL Collagenase I, 0.5 mg/mL Collagenase IV, 0.25 mg/mL Hyalyronidase V, 0.1 mg/mL DNAse I in HBSS (Millipore Sigma (St. Louis, MO)). Tumors were homogenized using the Miltenyi MACs dissociator. Red blood cells were lysed using ACK lysis buffer (Life Technologies, (Grand Island, NY)). Tumor homogenate cells were counted using a standard hemocytometer.\nTotal TILs were gated first to single cells (based on forward scatter height vs width, followed by side scatter height vs. width). Live cells were gated from the Zombie negative population from the population above. TILs were gated based on splenocyte size from a control spleen. Individual immune subpopulations were sub-gated from the total TIL population using the following staining criteria: CD3+ for CD3+ T cells; CD3+/CD4+/CD8− for CD4+T cells; CD3+/CD4−/CD8+ for CD8+ T cells, CD11c+/CD11b+ for DCs; either NK1.1 (for C57/BL6 mice) or DX5 (for C3H/HeJ) for NK cells; CD11b+/GR1+ for MDSC-like cells; and F4/80+ for macrophages. Single-cell suspensions from tumor and spleen tissue were stained with Live/Dead Zombie NIR (Biolegend, (San Diego, CA)) at 1:1,000 in PBS for 20 min. Cell suspensions were spun down and stained with the following with antibodies at 0.5 μg/ml per antibody: APC anti-mouse CD3, Pacific Blue anti-mouse CD4, BV785 anti-mouse CD8, PerCP anti-mouse CD25, FITC anti-mouse F4/80, PeCy7 anti-mouse CD11c, PE anti-mouse NK1.1 or PE anti-mouse DX5, and PerCP-Cy5.5 anti-mouse CD11 b. After staining, the cells were washed and fixed (2% formaldehyde), followed by another wash and flow cytometric analysis. The compensation controls were prepared using 0.5 μg/mL of each antibody with UltraComp eBeads, (ThermoFisher Scientific (Waltham, MA)). All samples were subject to flow cytometric profiling using a LSR Flow Cytometer (BD Biosciences (San Jose, CA)) and analysis as indicated using FlowJo software (BD Biosciences (San Jose, CA)).\nSW1 or SM1 mouse melanoma cells were injected into syngeneic C3H/HeN (or NSG) female or C57BL/6 male mice, respectively. Cells were injected as follows: parental SW1 cells for FIG. 13A; parental SM1 cells for FIG. 13E; SW1 cells stably expressing either empty vector (EV) or mouse fucose kinase (mFuk) for FIG. 1L; and parental SW1 cells for FIG. 13M. FTY720 was administered at 20 μg every 2 days starting on Day 12, just prior to the initiation of LF, until endpoint."}, "[2]": {"test_system": "mouse splenic MDSC", "test": "Splenic MDSC proliferation with L-fuc or 2FF", "assay_type": "cell-based", "conditions": "FIG. 3E"}}}
{"smiles": "C[C@H](O)[C@@H](O)[C@@H](O)[C@H](O)C=O", "note": "[L-fucose]", "values": [{"measurement": "cytotoxic CD4+T cells (CRTAM+)", "setting": "[1]; Day 28", "value": "transiently but significantly increased"}, {"measurement": "CD4 central memory, average # of cells", "setting": "[1]; Day 28, lymph nodes", "value": "2289.20 per 10^6 cells of total tumor"}, {"measurement": "CD4 effector memory, average # of cells", "setting": "[1]; Day 28, lymph nodes", "value": "445.15 per 10^6 cells of total tumor"}, {"measurement": "CD4 naïve, average # of cells", "setting": "[1]; Day 28, lymph nodes", "value": "9286.89 per 10^6 cells of total tumor"}, {"measurement": "CD4 stem central memory, average # of cells", "setting": "[1]; Day 28, lymph nodes", "value": "53601.81 per 10^6 cells of total tumor"}, {"measurement": "CD8 central memory, average # of cells", "setting": "[1]; Day 28, lymph nodes", "value": "295.92 per 10^6 cells of total tumor"}, {"measurement": "CD8 effector memory, average # of cells", "setting": "[1]; Day 28, lymph nodes", "value": "888.80 per 10^6 cells of total tumor"}, {"measurement": "CD8 naïve, average # of cells", "setting": "[1]; Day 28, lymph nodes", "value": "18072.26 per 10^6 cells of total tumor"}, {"measurement": "CD8 stem central memory, average # of cells", "setting": "[1]; Day 28, lymph nodes", "value": "980.96 per 10^6 cells of total tumor"}, {"measurement": "cDC1, average # of cells", "setting": "[1]; Day 28, lymph nodes", "value": "359.10 per 10^6 cells of total tumor"}, {"measurement": "cDC2, average # of cells", "setting": "[1]; Day 28, lymph nodes", "value": "743.69 per 10^6 cells of total tumor"}, {"measurement": "moDC, average # of cells", "setting": "[1]; Day 28, lymph nodes", "value": "37.66 per 10^6 cells of total tumor"}, {"measurement": "CD4 central memory, average # of cells", "setting": "[1]; Day 28, tumors", "value": "6.04 per 10^6 cells of total tumor"}, {"measurement": "CD4 effector memory, average # of cells", "setting": "[1]; Day 28, tumors", "value": "568.19 per 10^6 cells of total tumor"}, {"measurement": "CD4 naïve, average # of cells", "setting": "[1]; Day 28, tumors", "value": "30.44 per 10^6 cells of total tumor"}, {"measurement": "CD4 stem central memory, average # of cells", "setting": "[1]; Day 28, tumors", "value": "5.59 per 10^6 cells of total tumor"}, {"measurement": "CD8 central memory, average # of cells", "setting": "[1]; Day 28, tumors", "value": "1.24 per 10^6 cells of total tumor"}, {"measurement": "CD8 effector memory, average # of cells", "setting": "[1]; Day 28, tumors", "value": "108.29 per 10^6 cells of total tumor"}, {"measurement": "CD8 naïve, average # of cells", "setting": "[1]; Day 28, tumors", "value": "34.60 per 10^6 cells of total tumor"}, {"measurement": "CD8 stem central memory, average # of cells", "setting": "[1]; Day 28, tumors", "value": "0.00 per 10^6 cells of total tumor"}, {"measurement": "cDC1, average # of cells", "setting": "[1]; Day 28, tumors", "value": "2301.44 per 10^6 cells of total tumor"}, {"measurement": "cDC2, average # of cells", "setting": "[1]; Day 28, tumors", "value": "10732.04 per 10^6 cells of total tumor"}, {"measurement": "moDC, average # of cells", "setting": "[1]; Day 28, tumors", "value": "20903.90 per 10^6 cells of total tumor"}, {"measurement": "CD4 central memory, average # of cells", "setting": "[1]; Day 42, lymph nodes", "value": "1741.12 per 10^6 cells of total tumor"}, {"measurement": "CD4 effector memory, average # of cells", "setting": "[1]; Day 42, lymph nodes", "value": "5032.79 per 10^6 cells of total tumor"}, {"measurement": "CD4 naïve, average # of cells", "setting": "[1]; Day 42, lymph nodes", "value": "105779.76 per 10^6 cells of total tumor"}, {"measurement": "CD4 stem central memory, average # of cells", "setting": "[1]; Day 42, lymph nodes", "value": "1587.46 per 10^6 cells of total tumor"}, {"measurement": "CD8 central memory, average # of cells", "setting": "[1]; Day 42, lymph nodes", "value": "1741.12 per 10^6 cells of total tumor"}, {"measurement": "CD8 effector memory, average # of cells", "setting": "[1]; Day 42, lymph nodes", "value": "5032.79 per 10^6 cells of total tumor"}, {"measurement": "CD8 naïve, average # of cells", "setting": "[1]; Day 42, lymph nodes", "value": "105779.76 per 10^6 cells of total tumor"}, {"measurement": "CD8 stem central memory, average # of cells", "setting": "[1]; Day 42, lymph nodes", "value": "1587.46 per 10^6 cells of total tumor"}, {"measurement": "cDC1, average # of cells", "setting": "[1]; Day 42, lymph nodes", "value": "2141.34 per 10^6 cells of total tumor"}, {"measurement": "cDC2, average # of cells", "setting": "[1]; Day 42, lymph nodes", "value": "4375.69 per 10^6 cells of total tumor"}, {"measurement": "moDC, average # of cells", "setting": "[1]; Day 42, lymph nodes", "value": "1201.44 per 10^6 cells of total tumor"}, {"measurement": "CD4 central memory, average # of cells", "setting": "[1]; Day 42, tumors", "value": "38.18 per 10^6 cells of total tumor"}, {"measurement": "CD4 effector memory, average # of cells", "setting": "[1]; Day 42, tumors", "value": "111.09 per 10^6 cells of total tumor"}, {"measurement": "CD4 naïve, average # of cells", "setting": "[1]; Day 42, tumors", "value": "82.01 per 10^6 cells of total tumor"}, {"measurement": "CD4 stem central memory, average # of cells", "setting": "[1]; Day 42, tumors", "value": "16.67 per 10^6 cells of total tumor"}, {"measurement": "CD8 central memory, average # of cells", "setting": "[1]; Day 42, tumors", "value": "13.46 per 10^6 cells of total tumor"}, {"measurement": "CD8 effector memory, average # of cells", "setting": "[1]; Day 42, tumors", "value": "246.44 per 10^6 cells of total tumor"}, {"measurement": "CD8 naïve, average # of cells", "setting": "[1]; Day 42, tumors", "value": "109.29 per 10^6 cells of total tumor"}, {"measurement": "CD8 stem central memory, average # of cells", "setting": "[1]; Day 42, tumors", "value": "0.00 per 10^6 cells of total tumor"}, {"measurement": "cDC1, average # of cells", "setting": "[1]; Day 42, tumors", "value": "648.96 per 10^6 cells of total tumor"}, {"measurement": "cDC2, average # of cells", "setting": "[1]; Day 42, tumors", "value": "78.44 per 10^6 cells of total tumor"}, {"measurement": "moDC, average # of cells", "setting": "[1]; Day 42, tumors", "value": "169.08 per 10^6 cells of total tumor"}, {"measurement": "intratumoral CD4+T central and effector memory subpopulations", "setting": "[1]; FIG. 15c", "value": "increases"}, {"measurement": "intratumoral monocyte-derived DCs (moDCs)", "setting": "[1]; FIG. 15c", "value": "significantly increased"}, {"measurement": "lymph node cDC2s", "setting": "[1]; FIG. 15c", "value": "significantly increased"}, {"measurement": "L-fuc-triggered tumor suppression", "setting": "[1]; with FTY720 (inhibition of lymph node egress)", "value": "completely abrogated"}, {"measurement": "MDSC proliferation / MDSC populations", "setting": "[2]", "value": "increased"}, {"measurement": "MDSC proliferation / MDSC populations", "setting": "[2]; listed as L-fuc", "value": "increases"}]}
